{"source": "the supplement of paper PMC10307832", "experiment_in_all_cases": "relative viability (nuclei count vs DMSO), 5 days (fraction); higher = more cells survive", "key": {"OSI-027 + Pictilisib": {"compound": "COc1cccc2cc(-c3nc([C@H]4CC[C@H](C(=O)O)CC4)n4ncnc(N)c34)[nH]c12 [OSI-027] + CS(=O)(=O)N1CCN(Cc2cc3nc(-c4cccc5[nH]ncc45)nc(N4CCOCC4)c3s2)CC1 [Pictilisib] (partner 1 µM)", "in_short": "(§1)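 Nuclei were stained with Hoechst during a one-step fixation (final 0.05% Triton X-100, 1% formaldehyde, 1 ug/ml Hoechst) carried out 5 days after dosing, then counted on 4× images. The cells, lung cancer lines in 1536-well plates, had been dosed by pin tool the day after seeding with one drug alone or a fixed anchor-drug dose plus five library-drug doses (not always all listed) in √10 steps. Relative viability is the nuclei count in treated wells divided by that in vehicle wells, and each value is the median of duplicate plates.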"}, "OSI-027 + Trametinib": {"compound": "COc1cccc2cc(-c3nc([C@H]4CC[C@H](C(=O)O)CC4)n4ncnc(N)c34)[nH]c12 [OSI-027] + CC(=O)Nc1cccc(-n2c(=O)n(C3CC3)c(=O)c3c(Nc4ccc(I)cc4F)n(C)c(=O)c(C)c32)c1 [Trametinib] (partner 0.02 µM)", "in_short": "as §1"}, "OSI-027 + Alpelisib": {"compound": "COc1cccc2cc(-c3nc([C@H]4CC[C@H](C(=O)O)CC4)n4ncnc(N)c34)[nH]c12 [OSI-027] + Cc1nc(NC(=O)N2CCC[C@H]2C(N)=O)sc1-c1ccnc(C(C)(C)C(F)(F)F)c1 [Alpelisib] (partner 2 µM)", "in_short": "as §1"}, "Vemurafenib + Dasatinib": {"compound": "CCCS(=O)(=O)Nc1ccc(F)c(C(=O)c2c[nH]c3ncc(-c4ccc(Cl)cc4)cc23)c1F [Vemurafenib] + Cc1nc(Nc2ncc(C(=O)Nc3c(C)cccc3Cl)s2)cc(N2CCN(CCO)CC2)n1 [Dasatinib] (partner 0.075 µM)", "in_short": "as §1"}}}
{"cell line": "UMC-11", "values": [{"measurement": "relative viability", "setting": "OSI-027 + Pictilisib; first compound 0.01 µM", "result": 0.739}, {"measurement": "relative viability", "setting": "OSI-027 + Pictilisib; first compound 0.03162 µM", "result": 1.03}, {"measurement": "relative viability", "setting": "OSI-027 + Pictilisib; first compound 0.1 µM", "result": 0.664}, {"measurement": "relative viability", "setting": "OSI-027 + Pictilisib; first compound 0.3162 µM", "result": 0.636}, {"measurement": "relative viability", "setting": "OSI-027 + Pictilisib; first compound 1 µM", "result": 0.412}, {"measurement": "relative viability", "setting": "OSI-027 + Trametinib; first compound 0.01 µM", "result": 0.727}, {"measurement": "relative viability", "setting": "OSI-027 + Trametinib; first compound 0.03162 µM", "result": 0.772}, {"measurement": "relative viability", "setting": "OSI-027 + Trametinib; first compound 0.1 µM", "result": 0.579}, {"measurement": "relative viability", "setting": "OSI-027 + Trametinib; first compound 0.3162 µM", "result": 0.472}, {"measurement": "relative viability", "setting": "OSI-027 + Trametinib; first compound 1 µM", "result": 0.392}, {"measurement": "relative viability", "setting": "OSI-027 + Alpelisib; first compound 0.01 µM", "result": 1.09}, {"measurement": "relative viability", "setting": "OSI-027 + Alpelisib; first compound 0.03162 µM", "result": 0.818}, {"measurement": "relative viability", "setting": "OSI-027 + Alpelisib; first compound 0.1 µM", "result": 0.881}, {"measurement": "relative viability", "setting": "OSI-027 + Alpelisib; first compound 0.3162 µM", "result": 0.597}, {"measurement": "relative viability", "setting": "OSI-027 + Alpelisib; first compound 1 µM", "result": 0.49}, {"measurement": "relative viability", "setting": "Vemurafenib + Dasatinib; first compound 0.03162 µM", "result": 0.465}, {"measurement": "relative viability", "setting": "Vemurafenib + Dasatinib; first compound 0.1 µM", "result": 0.459}, {"measurement": "relative viability", "setting": "Vemurafenib + Dasatinib; first compound 0.3162 µM", "result": 0.455}, {"measurement": "relative viability", "setting": "Vemurafenib + Dasatinib; first compound 1 µM", "result": 0.537}]}
